Test results published in ChEMBL document CHEMBL4138123, “Design, synthesis and biological evaluation of novel pyrazolochalcones as potential modulators of PI3K/Akt/mTOR pathway and inducers of apoptosis in breast cancer cells” (Eur J Med Chem, 2017).

Experiments:
Format in all cases: functional
Hs-578T [1] = assay: Cytotoxicity against human Hs 578T cells assessed as cell growth at 0.01 uM after 48 hrs by sulforhodamine B assay relative to control; conditions: read-out: Activity
UACC-257 [2] = assay: Cytotoxicity against human UACC257 cells assessed as growth inhibition after 48 hrs by sulforhodamine B assay; conditions: UACC-257, 48 h
NCI-H522 [3] = assay: Cytotoxicity against human NCI-H522 cells assessed as cell growth at 0.01 uM after 48 hrs by sulforhodamine B assay relative to control; conditions: NCI-H522, 48 h, read-out: Activity
UACC-62 [4] = assay: Cytotoxicity against human UACC62 cells assessed as cell growth at 10 uM after 48 hrs by sulforhodamine B assay relative to control; conditions: UACC-62, 48 h, read-out: Activity
OVCAR-5 = assay: Cytotoxicity against human OVCAR5 cells assessed as cell growth at 0.01 uM after 48 hrs by sulforhodamine B assay relative to control; conditions: OVCAR-5, 48 h, read-out: Activity
HCT-116 = assay: Cytotoxicity against human HCT116 cells assessed as cell growth at 0.1 uM after 48 hrs by sulforhodamine B assay relative to control; conditions: HCT-116, 48 h, read-out: Activity
NCI-H23 = assay: Cytotoxicity against human NCI-H23 cells assessed as cell growth at 100 uM after 48 hrs by sulforhodamine B assay relative to control; conditions: NCI-H23, 48 h, read-out: Activity
K562 [5] = assay: Cytotoxicity against human K562 cells assessed as cell growth at 0.1 uM after 48 hrs by sulforhodamine B assay relative to control; conditions: K562, 48 h, read-out: Activity
KM12 [6] = assay: Cytotoxicity against human KM12 cells assessed as cell growth at 1 uM after 48 hrs by sulforhodamine B assay relative to control; conditions: KM12, 48 h, read-out: Activity
HL-60(TB) [7] = assay: Cytotoxicity against human HL-60(TB) cells assessed as cell growth at 10 uM after 48 hrs by sulforhodamine B assay relative to control; conditions: HL-60, 48 h, read-out: Activity
SNB-19 = assay: Cytotoxicity against human SNB19 cells assessed as growth inhibition after 48 hrs by sulforhodamine B assay; conditions: SNB-19, 48 h; for CC50: read-out: LC50 (the source's name)
A498 [8] = assay: Cytotoxicity against human A498 cells assessed as cell growth at 100 uM after 48 hrs by sulforhodamine B assay relative to control; conditions: A498, 48 h, read-out: Activity
PC-3 = assay: Cytotoxicity against human PC3 cells assessed as cell growth at 0.1 uM after 48 hrs by sulforhodamine B assay relative to control; conditions: PC-3, 48 h, read-out: Activity
SN12C = assay: Cytotoxicity against human SN12C cells assessed as growth inhibition after 48 hrs by sulforhodamine B assay
KM12 [9] = assay: Cytotoxicity against human KM12 cells assessed as growth inhibition after 48 hrs by sulforhodamine B assay; conditions: KM12, 48 h
ACHN = assay: Cytotoxicity against human ACHN cells assessed as cell growth at 0.1 uM after 48 hrs by sulforhodamine B assay relative to control; conditions: read-out: Activity
K562 [10] = assay: Cytotoxicity against human K562 cells assessed as cell growth at 100 uM after 48 hrs by sulforhodamine B assay relative to control; conditions: K562, 48 h, read-out: Activity
HL-60(TB) [11] = assay: Cytotoxicity against human HL-60(TB) cells assessed as growth inhibition after 48 hrs by sulforhodamine B assay; conditions: HL-60, 48 h
Malme-3M = assay: Cytotoxicity against human MALME-3M cells assessed as cell growth at 0.01 uM after 48 hrs by sulforhodamine B assay relative to control; conditions: read-out: Activity
OVCAR-8 [12] = assay: Cytotoxicity against human OVCAR8 cells assessed as cell growth at 100 uM after 48 hrs by sulforhodamine B assay relative to control; conditions: OVCAR-8, 48 h, read-out: Activity
Hs-578T [13] = assay: Cytotoxicity against human Hs 578T cells assessed as cell growth at 100 uM after 48 hrs by sulforhodamine B assay relative to control; conditions: read-out: Activity
NCI-H322M = assay: Cytotoxicity against human NCI-H322M cells assessed as cell growth at 10 uM after 48 hrs by sulforhodamine B assay relative to control; conditions: read-out: Activity
UACC-257 [14] = assay: Cytotoxicity against human UACC257 cells assessed as cell growth at 100 uM after 48 hrs by sulforhodamine B assay relative to control; conditions: UACC-257, 48 h, read-out: Activity
HCC 2998 = assay: Cytotoxicity against human HCC2998 cells assessed as growth inhibition after 48 hrs by sulforhodamine B assay; conditions: HCC 2998, 48 h
OVCAR-8 [15] = assay: Cytotoxicity against human OVCAR8 cells assessed as cell growth at 10 uM after 48 hrs by sulforhodamine B assay relative to control; conditions: OVCAR-8, 48 h, read-out: Activity
A498 [16] = assay: Cytotoxicity against human A498 cells assessed as cell growth at 10 uM after 48 hrs by sulforhodamine B assay relative to control; conditions: A498, 48 h, read-out: Activity
NCI-H522 [17] = assay: Cytotoxicity against human NCI-H522 cells assessed as cell growth at 100 uM after 48 hrs by sulforhodamine B assay relative to control; conditions: NCI-H522, 48 h, read-out: Activity
SF-268 = assay: Cytotoxicity against human SF268 cells assessed as cell growth at 0.1 uM after 48 hrs by sulforhodamine B assay relative to control; conditions: SF-268, 48 h, read-out: Activity
MDA-MB-231 = assay: Cytotoxicity against human MDA-MB-231 cells assessed as cell growth at 10 uM after 48 hrs by sulforhodamine B assay relative to control; conditions: MDA-MB-231, 48 h, read-out: Activity
MDA-MB-435 = assay: Cytotoxicity against human MDA-MB-435 cells assessed as cell growth at 100 uM after 48 hrs by sulforhodamine B assay relative to control; conditions: MDA-MB-435, 48 h, read-out: Activity
UACC-62 [18] = assay: Cytotoxicity against human UACC62 cells assessed as cell growth at 100 uM after 48 hrs by sulforhodamine B assay relative to control; conditions: UACC-62, 48 h, read-out: Activity
NCI/ADR-RES = assay: Cytotoxicity against human NCI/ADR-RES cells assessed as cell growth at 100 uM after 48 hrs by sulforhodamine B assay relative to control; conditions: read-out: Activity
RXF 393 = assay: Cytotoxicity against human RXF393 cells assessed as cell growth at 0.01 uM after 48 hrs by sulforhodamine B assay relative to control; conditions: RXF 393, 48 h, read-out: Activity
HCT-15 = assay: Cytotoxicity against human HCT15 cells assessed as growth inhibition after 48 hrs by sulforhodamine B assay; conditions: HCT-15, 48 h
NCI-H226 = assay: Cytotoxicity against human NCI-H226 cells assessed as cell growth at 100 uM after 48 hrs by sulforhodamine B assay relative to control; conditions: NCI-H226, 48 h, read-out: Activity

COc1cc(-c2cc(/C=C/C(=O)c3ccc(Cl)c(Cl)c3)[nH]n2)cc(OC)c1OC
growth at 0.01 µM (Hs-578T [1]): 98%
LC50 (UACC-257 [2]): > 100 µM
TGI (UACC-257 [2]): 74 µM
growth at 0.01 µM (NCI-H522 [3]): 92%
growth at 10 µM (UACC-62 [4]): 63%
growth at 0.01 µM (OVCAR-5): 97%
growth at 0.1 µM (HCT-116): 100%
growth at 100 µM (NCI-H23): 5%
growth at 0.1 µM (K562 [5]): 106%
growth at 1 µM (KM12 [6]): 85%
growth at 10 µM (HL-60(TB) [7]): 43%
TGI (SNB-19): > 100 µM
CC50 (SNB-19): > 100 µM
growth at 100 µM (A498 [8]): -25%
growth at 0.1 µM (PC-3): 100%
LC50 (SN12C): > 100 µM
TGI (SN12C): > 100 µM
LC50 (KM12 [9]): > 100 µM
TGI (KM12 [9]): > 100 µM
growth at 0.1 µM (ACHN): 105%
growth at 100 µM (K562 [10]): -7%
LC50 (HL-60(TB) [11]): > 100 µM
TGI (HL-60(TB) [11]): 36.7 µM
growth at 0.01 µM (Malme-3M): 94%
growth at 100 µM (OVCAR-8 [12]): -36%
growth at 100 µM (Hs-578T [13]): 3%
growth at 10 µM (NCI-H322M): 59%
growth at 100 µM (UACC-257 [14]): -10%
LC50 (HCC 2998): > 100 µM
TGI (HCC 2998): 31.4 µM
growth at 10 µM (OVCAR-8 [15]): 40%
growth at 10 µM (A498 [16]): 43%
growth at 100 µM (NCI-H522 [17]): -65%
growth at 0.1 µM (SF-268): 92%
growth at 10 µM (MDA-MB-231): 47%
growth at 100 µM (MDA-MB-435): 6%
growth at 100 µM (UACC-62 [18]): 14%
growth at 100 µM (NCI/ADR-RES): 5%
growth at 0.01 µM (RXF 393): 96%

COc1cc(-c2cc(/C=C/C(=O)c3ccc(F)c(F)c3)[nH]n2)cc(OC)c1OC
growth at 0.01 µM (Hs-578T [1]): 98%
LC50 (UACC-257 [2]): > 100 µM
TGI (UACC-257 [2]): 6.28 µM
growth at 0.01 µM (NCI-H522 [3]): 96%
growth at 10 µM (UACC-62 [4]): -13%
growth at 0.01 µM (OVCAR-5): 99%
growth at 0.1 µM (HCT-116): 102%
growth at 100 µM (NCI-H23): -27%
growth at 0.1 µM (K562 [5]): 109%
growth at 1 µM (KM12 [6]): 95%
LC50 (HCT-15): > 100 µM
TGI (HCT-15): > 100 µM
growth at 10 µM (HL-60(TB) [7]): -29%
TGI (SNB-19): > 100 µM
CC50 (SNB-19): > 100 µM
growth at 100 µM (A498 [8]): -40%
growth at 0.1 µM (PC-3): 93%
LC50 (SN12C): > 100 µM
TGI (SN12C): 25.5 µM
LC50 (KM12 [9]): > 100 µM
TGI (KM12 [9]): 11.4 µM
growth at 0.1 µM (ACHN): 106%
growth at 100 µM (K562 [10]): -7%
LC50 (HL-60(TB) [11]): > 100 µM
TGI (HL-60(TB) [11]): 6.03 µM
growth at 0.01 µM (Malme-3M): 93%
growth at 100 µM (NCI-H226): -65%
growth at 100 µM (OVCAR-8 [12]): -12%
growth at 100 µM (Hs-578T [13]): -16%
growth at 10 µM (NCI-H322M): 18%
growth at 100 µM (UACC-257 [14]): -37%
LC50 (HCC 2998): > 100 µM
TGI (HCC 2998): 34.1 µM
growth at 10 µM (OVCAR-8 [15]): 4%
growth at 10 µM (A498 [16]): -14%
growth at 100 µM (NCI-H522 [17]): -53%
growth at 0.1 µM (SF-268): 94%
growth at 10 µM (MDA-MB-231): -38%
growth at 100 µM (MDA-MB-435): -34%
growth at 100 µM (UACC-62 [18]): -81%
growth at 100 µM (NCI/ADR-RES): -5%
growth at 0.01 µM (RXF 393): 94%
